Data set [1] concerns SARS-CoV-2 viral infection. Briefly: Treatment of a patient suffering from COVID-19. It is filed as in vivo. Particulars: human patient, intravenous, subcutaneous, or oral, daily for 21 days.
Data set [2] concerns 17 coronavirus proteases from human and animal coronaviruses. It is filed as cell-based.
The next data set deals with SARS CoV-2. As to the kind of experiment: Antiviral efficacy of GC376 and REMDESIVIR in golden Syrian hamsters challenged intranasally with SARS-CoV-2, IP. It is filed as in vivo, golden Syrian female hamsters. Particulars: for body weights: IP injection for eight days, versus control animals with SARS-CoV-2 alone; for lung PFU: lung samples, days 4 and 14. An excerpt: The animals were sacrificed at days 4, 8, or 14 following initiation of the experiment and the various tissues were then collected for analysis. Detailed experimental design and experimental parameters can be found in FIG. 9A, FIG. 9B, and FIG. 10.

The subject of data set [3] is COVID-19/SARS-CoV-2 virus. It is filed as cell-based.
The test system of data set [4] is SARS-CoV-2. Briefly: microbe, parasite or virus in culture. It is filed as cell-based. Particulars: Severe acute respiratory syndrome coronavirus 2; SARS-CoV-2 infected cells, dose response FIG. 3; read-out: EC50 against SARS-CoV-2.
Data set [5] has as its system SARS-CoV-2. As to the kind of experiment: Antiviral efficacy in hamsters challenged intranasally with SARS-CoV-2, S.C. GC376. It is filed as in vivo, hamster. Particulars: for trachea PFU: trachea samples. The source says: The hamsters were sacrificed and various tissues were collected for analysis.
The next data set concerns SARS-CoV-2 virus. Briefly: Prophylactic treatment of a patient susceptible to COVID-19. It is filed as in vivo. Particulars: human patient at risk, daily for 21 days beginning one week prior to possible exposure.
Data set [6] can be described thus: CC50 in the structure table of GC543 and GC583 (no method given). It is filed as cell-based. As to conditions: cells not given.

Values joined by “and” are separate entries in the source; they are usually repeats but may differ in a detail not shown here. Equal values may be shown once. A value given as a limit tells only on which side of the number the result lay.

`CC(C)C[C@H](NC(=O)OCc1ccccc1)C(=O)N[C@@H](C[C@@H]1CCNC1=O)C(O)S(=O)(=O)[O-].[Na+]` (stereo partly drawn) [GC376]: the “outcome after 21 days of treatment” value in data set [1] is “recovered from the SARS-CoV-2 infection”. Further, the “activity against coronavirus proteases” value in data set [2] is on record as “activity across all coronaviruses tested, including SARS-CoV-2”. Also, in the data set with SARS CoV-2, the body weights result is recorded as “maintained similar body weights to the control animals”. Besides, the “lung PFU” value with SARS CoV-2 was “reduction of PFU at days 4 and 14”. Also, the “lowering of virus titer” value in data set [3] (5 μM GC376 versus virus solution without GC376) is listed as “approximately 15 fold”. Further, in data set [3] (virus solution with 5 μM GC376, average of three replicate plates), the “PFU/ml, average” value was 2.1×10^6 pfu/ml. Besides, the “PFU/ml, each replicate plate” value in data set [3] (virus solution with 5 μM GC376, individual plates) is 2.75×10^6 pfu/ml and 2.25×10^6 pfu/ml and 1.30×10^6 pfu/ml. For the same molecule, the concentration giving a half-maximal response (EC50) in the data set with SARS-CoV-2 [4] was about 0.81 µM. For the same molecule, in the data set on SARS-CoV-2 [5] (10 mg/kg/day and 25 mg/kg/day, versus infected controls without GC376), the “body weight at 10 mg/kg/day and 25 mg/kg/day” value is recorded as “appeared to lose more weight initially, but by the eighth day following initiation of the experiment had a body weight that was similar to the control animals”. For the same molecule, in the data set on SARS-CoV-2 [5] (100 mg/kg/day cohort), the “lung PFU versus control” value is reported as “had fewer PFUs in their lungs than the control animal, although two animals had more PFUs than the control”. For the same molecule, the “body weights of individual hamsters” value in the data set on SARS-CoV-2 [5] (each individual hamster, days 0-8, any dose) was “trend show for each animal to regain its normal body weight”. Besides, the “trachea PFU” value with SARS-CoV-2 [5] (100 mg/kg/day group) is reported as “did show noticeable PFU formation from trachea samples”; in the data set with SARS-CoV-2 [5] (all groups), “most of the animals did not show PFUs from samples taken from the trachea”. Also, the “outcome after prophylactic treatment” value in the data set with SARS-CoV-2 virus is reported as “not have developed COVID-19 or a SARS-CoV-2 infection”.

Molecule `O=C[C@@H](C[C@@H]1CCNC1=O)NC(=O)[C@H](CC1CCCCC1)NC(=O)OCc1ccccc1` [GC543] returned a CC50 in data set [6] of over 100 µM.

For `CCC(CC)COC(=O)[C@H](C)N[P@](=O)(OC[C@H]1O[C@@](C#N)(c2ccc3c(N)ncnn23)[C@H](O)[C@@H]1O)Oc1ccccc1` [reference compound], in the data set with SARS CoV-2, the body weights entry was “maintained similar body weights to the control animals”; the “lung PFU” value is “reduction of PFU at days 4 and 14”.

Take `O=C[C@@H](C[C@@H]1CCNC1=O)NC(=O)[C@H](CC1CCCCC1)NC(=O)OCc1cccc(Cl)c1` [GC583]: the CC50 in data set [6] was over 100 µM.

(Values after patent publication US20210292277A1 (priority 2020, published 2021).)
